Data taken from patent US20090143484A1, “USE OF GARLIC OIL TO INCREASE BIOAVAILABILITY OF COENZYME Q-10” (priority 2007, published 2009).

How the values were obtained:
[1] = test system: Caco-2 HTB-37 (human colon adenocarinoma); test: Absorption testing using Caco-2 cells (cellular uptake of CoQ10, HPLC); assay type: in vitro ADME; conditions: 37° C., up to 2 h
Method: Caco-2 HTB-37 (human colon adenocarinoma), obtained from ATCC, were cultured in DMEM (Dulbecco/Vogt modified Eagle's minimal essential medium) containing 20% FCS (Fetal Calf Serum), 1% nonessential amino acids, 0.83 mM L-glutamine and 1% penicillin-streptomycin at 37° C. in a humified atmosphere of CO2. Cells were grown in 75 cm^2 culture-flasks (T75) and their medium was replaced every third day. As soon as confluency was reached—once a week—they were split using trypsin.
After discarding the old medium, the monolayer was washed with 10 mL PBS. Subsequently, 3 mL trypsin was added in order to detach the cells. […]
The remaining 9 mL cell-suspension was used for experiments and was therefore transferred into a 15 mL falcon. After the cells had been counted by using a Neubauer-chamber, cells were seeded into 6 Well Thin Certs and 6 Wells at a density of 3×10^5 and 6.76×10^5, respectively. […]
The optimum amount of the emulsifier lecithin had to be determined individually for each sample. […]
A reversed-phase column (Spherimage-80) with 5 μm pore size and […] was used. […] Coenzyme Q10 (oxidized and reduced) were monitored at 275 nm.
CoQ10 was determined in the media (outside the cells) and in the cells. Both, oxidized and reduced CoQ10, were quantified. […]

Human LDL = test: Prevention of LDL oxidation (CuSO4-initiated conjugated diene formation at 234 nm); assay type: biochemical; conditions: LDL 0.1 mg/ml
Method: Human LDL were obtained by ultracentrifugation from fresh human blood, followed by dialysis against in 10 mM PBS (pH 7.4) at 4° C. in the dark for 24 h. LDL (0.1 mg/ml) were mixed with different amounts of active constituents. Reaction was initiated by adding a solution of CuSO4 (10 μM); samples were then incubated at 37° C. for 22 h. The formation of conjugated diene was measured at 234 nm using a Hewlett-Packard spectrophotometer (Agilent, Palo Alto).
Data evaluation was performed by comparison of the slope of increase in diene-formation. The steepest slope (i.e. without addition of anti-oxidants) was set to 100%. Results are given as relative %.
The lag-time until start of diene formation was estimated from the kinetic curves obtained. Results are given in minutes.

content of CoQ10 in the media during the incubation conditions [1]: stable
SMILES: COC1=C(OC)C(=O)C(C/C=C(\C)CC/C=C(\C)CC/C=C(\C)CC/C=C(\C)CC/C=C(\C)CC/C=C(\C)CC/C=C(\C)CC/C=C(\C)CC/C=C(\C)CCC=C(C)C)=C(C)C1=O [CoQ10]
Inhibition (Human LDL; 0.1 mg/mL of CoQ10): 13%
Residual activity (Human LDL; 0.1 mg/mL of CoQ10): 87%
Inhibition (Human LDL; 1 mg/mL of CoQ10): 43%
Residual activity (Human LDL; 1 mg/mL of CoQ10): 57%
Inhibition (Human LDL; 1 mg/mL of CoQ10, listed as CoQ-10): about 43%
Inhibition (Human LDL; 10 mg/mL of CoQ10): 68%
Residual activity (Human LDL; 10 mg/mL of CoQ10): 32%
Lag Time (Human LDL; lag time to start of LDL-oxidation, Co Q10 1 mg/mL): 146 min
